{"source": "paper PMC9019904", "about": "“AD Informer Set: Chemical tools to facilitate Alzheimer's disease drug discovery” (Alzheimer's & Dementia : Translational Research & Clinical …, 2022)", "key": {"cellular system": {"tested_on": "cellular system", "settings": "published cellular activity at 10 μM; cited from earlier work"}, "[1]": {"tested_on": "BV2 (mouse microglia) cell line", "experiment": "pHrodo-myelin phagocytosis/cell viability high content imaging assay: phagocytosis signal", "type": "cell-based", "settings": "BV2 cells, 10 μM", "outline": "(§1)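 Simultaneous phagocytosis/viability imaging at approximately 22 h after adding pHrodo-myelin. Rising intensity flagged early apoptosis and falling intensity later apoptosis.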"}, "[2]": {"tested_on": "HMC3 (human microglia) cell line", "experiment": "pHrodo-myelin phagocytosis/cell viability high content imaging assay: phagocytosis signal", "type": "cell-based", "settings": "HMC3 cells, 10 μM", "outline": "as §1"}, "physchem": {"experiment": "physchem", "settings": "pH 7.4, aqueous buffer, kinetic from dmso stock"}, "[3]": {"tested_on": "BV2 (mouse microglia) cell line", "experiment": "pHrodo-myelin phagocytosis/cell viability high content imaging assay: viability (cell count, nuclear area, nuclear intensity)", "settings": "BV2 cells, 10 μM, cell count <70% control", "outline": "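Cells adhered overnight, then were exposed to compounds at a single 10 μM for 48 h in total, with pHrodo-myelin added for the last 20 h. High-content imaging gave cell count per well as the main viability measure plus mean nuclear intensity per cell. Duplicate wells were averaged and expressed as % of untreated control.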"}, "[4]": {"tested_on": "protein product expressed by the gene target", "settings": "cited from earlier work"}}}
{"molecule": "c1cn2cc(-c3ccc4cn[nH]c4c3)nc(Nc3ccc(N4CCOCC4)cc3)c2n1", "note": "[Entospletinib (GS-9973)]", "values": [{"measurement": "Reported as cell active (<10 μM)", "setting": "cellular system", "result": "Y (Published data supports that the compound is active in a cellular system when dosed at 10 μM (Y/N))"}, {"measurement": "Inhibition of mouse microglial phagocytosis at 10 μM (<70% control)", "setting": "[1]", "result": "Y (The compound was found to inhibit phagocytosis (response threshold: <70% control) when murine immortalized microglial cells were dosed at 10 μM (Y: yes))"}, {"measurement": "Inhibition of human microglial phagocytosis at 10 μM (<70% control)", "setting": "[2]", "result": "Y (The compound was found to inhibit phagocytosis (response threshold: <70% control) when human immortalized microglial cells were dosed at 10 μM (Y: yes))"}, {"measurement": "solubility kinetic", "setting": "physchem", "result": 0.5, "unit": "µM"}, {"measurement": "Mouse microglial cytotoxicity at 10 μM (<70% control)", "setting": "[3]", "result": "Y (The compound was found to be cytotoxic (cell count threshold: <70% control) when murine immortalized microglial cells were dosed at 10 μM (Y: yes))"}, {"measurement": "Reported on-target biochemical potency", "setting": "[4]", "result": 7.7, "unit": "nM"}]}
